What was measured:
GAL4-PPARα = biological target: T1, GAL4-PPARα (Homo sapiens, UniProt Q07869); experiment: Cellular PPAR transactivation assay, GAL4-PPARα chimera in CHO-K1 cells; type: cell-based; conditions: for Emax: CHO-K1, maximum effect relative to reference compound (Example 73 of EP 1 452 521-A1 = 100%), read-out: PPARα efficacy; for EC50: CHO-K1 cells, luciferase reporter, 6 h stimulation
T1 construct: expressed in transfected cells
T1 sequence (Q07869 167-468): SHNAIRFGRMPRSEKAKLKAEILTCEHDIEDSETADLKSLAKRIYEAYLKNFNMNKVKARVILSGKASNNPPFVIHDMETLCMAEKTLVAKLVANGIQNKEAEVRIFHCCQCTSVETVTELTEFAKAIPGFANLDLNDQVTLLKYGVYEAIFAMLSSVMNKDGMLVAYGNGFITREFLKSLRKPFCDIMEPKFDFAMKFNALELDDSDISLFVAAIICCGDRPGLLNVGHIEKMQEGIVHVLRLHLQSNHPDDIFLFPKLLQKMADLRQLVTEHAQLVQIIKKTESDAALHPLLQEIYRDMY
Summary of the method: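 CHO-K1 cells stably expressing GAL4 DNA-binding domain fused to the human PPAR ligand-binding domain (α aa 167-468, γ aa 203-506, δ aa 138-442) plus a GAL4-driven firefly luciferase reporter. Compounds added in serum-free medium for 6 h; EC50 from luminescence curves. Efficacy in % of a pan-PPAR agonist reference set as 100%.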

[1] = biological target: T2, soluble guanylate cyclase (sGC) (Rattus norvegicus, UniProt P20595); experiment: Stimulation of sGC enzyme activity (PPi detection, luciferase); type: biochemical; conditions: sGC enzyme in vitro; for EC50: read-out: EC50 (concentration at 50% of maximum efficacy), activating action at the sGC enzyme
T2 construct: made in house; host or cells: Sf9 insect cells (baculovirus)
Procedure: Soluble guanylate cyclase (sGC) converts on stimulation GTP into cGMP and pyrophosphate (PPi). PPi is detected with the aid of the assay described below. The signal produced in the assay increases as the reaction progresses and serves as a measure of the sGC enzyme activity under the given stimulation.
To carry out the assay, 29 μl of enzyme solution [0-10 nM soluble guanylate cyclase (prepared according to Honicka et al., J. Mol. Med. 77, 14-23 (1999)) in 50 mM TEA, 2 mM MgCl2, 0.1% BSA (fraction V), 0.005% Brij®, pH 7.5] are initially introduced into a microplate, and 1 μl of the substance to be tested (as a serially diluted solution in DMSO) is added. The mixture is incubated at room temperature for 10 min. Then 20 μl of detection mix [1.2 nM Firefly Luciferase (Photinus pyralis luciferase, Promega), 29 μM dehydroluciferin (prepared according to Bitler & McElroy, Arch. Biochem. Biophys. 72, 358 (1957)), 122 μM luciferin (Promega), 153 μM ATP (Sigma) and 0.4 mM DTT (Sigma) in 50 mM TEA, 2 mM MgCl2, 0.1% BSA (fraction V), 0.005% Brij®, pH 7.5] are added. The enzyme reaction is started by adding 20 μl of substrate solution [1.25 mM guanosine 5′-triphosphate (Sigma) in 50 mM TEA, 2 mM MgCl2, 0.1% BSA (fraction V), 0.005% Brij®, pH 7.5] and measured continuously in a luminometer. The extent of the stimulation by the substance to be tested can be determined relative to the signal of the unstimulated reaction.
The activation of haem-free guanylate cyclase is examined by addition of 25 μM of 1H-1,2,4-oxadiazolo[4,3-a]quinoxalin-1-one (ODQ) to the enzyme solution and subsequent incubation for 30 minutes and compared to the stimulation of the native enzyme.

Haem-free sGC = biological target: T3, Haem-free sGC (Rattus norvegicus, UniProt P20595); experiment: Stimulation of recombinant soluble guanylate cyclase (sGC) in vitro, haem-free enzyme; type: biochemical
T3 construct: made in house; host or cells: Sf9 insect cells (baculovirus)
Procedure: Investigations on the stimulation of recombinant soluble guanylate cyclase (sGC) by the compounds according to the invention with and without sodium nitroprusside, and with and without the haem-dependent sGC inhibitor 1H-1,2,4-oxadiazolo[4,3a]quinoxalin-1-one (ODQ), are carried out by the method described in detail in the following reference: M. Hoenicka, E. M. Becker, H. Apeler, T. Sirichoke, H. Schroeder, R. Gerzer and J.-P. Stasch, “Purified soluble guanylyl cyclase expressed in a baculovirus/Sf9 system: Stimulation by YC-1, nitric oxide, and carbon oxide”, J. Mol. Med. 77 (1999), 14-23. The haem-free guanylate cyclase is obtained by adding Tween 20 to the sample buffer (0.5% in the final concentration).
The activation of sGC by a test substance is reported as x-fold stimulation of the basal activity.

T3 sequence (P19686 whole entry partner): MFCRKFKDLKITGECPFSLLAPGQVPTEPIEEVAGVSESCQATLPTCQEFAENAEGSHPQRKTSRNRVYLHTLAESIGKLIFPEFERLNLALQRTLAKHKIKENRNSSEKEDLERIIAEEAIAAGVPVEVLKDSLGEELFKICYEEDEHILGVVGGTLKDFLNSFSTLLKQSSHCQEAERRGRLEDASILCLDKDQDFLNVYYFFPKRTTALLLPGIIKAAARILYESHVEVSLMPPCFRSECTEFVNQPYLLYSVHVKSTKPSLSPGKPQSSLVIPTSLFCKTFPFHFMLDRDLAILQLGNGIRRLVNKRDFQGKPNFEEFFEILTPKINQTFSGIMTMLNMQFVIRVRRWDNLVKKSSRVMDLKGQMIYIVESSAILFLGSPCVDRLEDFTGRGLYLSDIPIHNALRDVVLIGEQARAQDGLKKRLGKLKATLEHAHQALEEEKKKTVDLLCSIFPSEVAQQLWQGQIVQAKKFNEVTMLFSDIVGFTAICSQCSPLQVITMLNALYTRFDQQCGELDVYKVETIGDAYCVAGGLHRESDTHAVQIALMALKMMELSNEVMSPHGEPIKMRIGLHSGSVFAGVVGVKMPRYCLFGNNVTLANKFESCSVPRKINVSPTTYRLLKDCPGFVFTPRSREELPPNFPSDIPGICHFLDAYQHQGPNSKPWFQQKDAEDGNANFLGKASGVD
T3 sequence (P20595 whole entry): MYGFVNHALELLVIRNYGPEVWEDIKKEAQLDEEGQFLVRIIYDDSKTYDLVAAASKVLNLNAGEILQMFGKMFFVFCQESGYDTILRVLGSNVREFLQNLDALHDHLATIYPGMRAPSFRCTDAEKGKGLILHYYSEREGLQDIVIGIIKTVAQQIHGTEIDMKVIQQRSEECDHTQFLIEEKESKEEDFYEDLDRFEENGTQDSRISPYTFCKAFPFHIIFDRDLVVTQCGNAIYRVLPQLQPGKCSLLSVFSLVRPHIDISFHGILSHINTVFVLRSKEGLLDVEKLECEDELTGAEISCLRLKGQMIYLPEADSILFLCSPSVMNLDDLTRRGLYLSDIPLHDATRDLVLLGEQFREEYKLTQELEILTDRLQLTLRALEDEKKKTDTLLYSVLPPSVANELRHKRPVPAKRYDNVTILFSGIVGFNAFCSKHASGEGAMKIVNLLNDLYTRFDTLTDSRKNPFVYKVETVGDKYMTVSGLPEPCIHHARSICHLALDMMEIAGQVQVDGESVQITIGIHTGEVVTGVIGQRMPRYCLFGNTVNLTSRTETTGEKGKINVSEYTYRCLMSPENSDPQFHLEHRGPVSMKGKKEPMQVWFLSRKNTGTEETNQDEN
T2 sequence (P19686 whole entry partner): as the sequence (P19686 whole entry partner) above
T2 sequence (P20595 whole entry): as the sequence (P20595 whole entry) above

Compound	Emax (GAL4-PPARα) [%]	EC50 (GAL4-PPARα) [nM]	MEC (minimum effective concentration), activating action at the sGC enzyme [1] [nM]	EC50 [1] [nM]	Stimulation (x-fold) of recombinant sGC, Basal (Haem-free sGC; test substance 0.01 μM) [x-fold]	Stimulation (x-fold) of recombinant sGC, Basal (Haem-free sGC; test substance 0.1 μM) [x-fold]	Stimulation (x-fold) of recombinant sGC, Basal (Haem-free sGC; test substance 1.0 μM) [x-fold]	Stimulation (x-fold) of recombinant sGC, Basal (Haem-free sGC; test substance 10 μM) [x-fold]	Stimulation (x-fold) of recombinant sGC, Basal (Haem-free sGC; test substance 100 μM) [x-fold]
CCOC(c1ccc(Cl)c(NC(=O)[C@H](c2ccc(Cl)cc2)[C@@H](C)C(F)(F)F)c1)C1(C(=O)O)CC1 (single isomer, unassigned) [Example 101]	0	> 10000	0.7	4.6					
[2H]C([2H])([2H])OC(c1ccc(Cl)c(NC(=O)[C@H](c2ccc(Cl)cc2)[C@@H](C)C(F)(F)F)c1)C1(C(=O)O)CC1 (single isomer, unassigned; (+)) [Example 99]	0	> 10000	4.1	53	2.0 ± 0.4	5.2 ± 0.8	14.9 ± 2.2	19.4 ± 2.8	
C[C@H]([C@H](C(=O)Nc1cc(CC2(C(=O)O)CC2)ccc1Cl)c1ccc(Cl)c(F)c1)C(F)(F)F [Example 30, (+)-1-(4-chloro-3-{[(2S,3R)-2-(4-chloro-3-fluoro-phenyl)-4,4,4-trifluoro-3-methylbutanoyl]amino}-benzyl)cyclopropanecarboxylic acid]	0	> 10000	0.6	7.6					
C[C@H]([C@H](C(=O)Nc1cc(CC2(C(=O)O)CC2)ccc1Cl)c1ccc(Cl)cc1)C(F)(F)F [Example 50, (+)-1-(4-Chloro-3-{[(2S,3R)-2-(4-chlorophenyl)-4,4,4-trifluoro-3-methylbutanoyl]amino}benzyl)-cyclopropanecarboxylic acid]	0	> 10000	0.7	7.3	2.6 ± 0.8	7.1 ± 2.4	27.2 ± 7.4	41.2 ± 9.8	39.0 ± 9.1

Source: US9018258B2, “Substituted 1-benzylcycloalkylcarboxylic acids and the use thereof” (Bayer Intellectual Property GmbH, priority 2010, dated 2015)
